Measurements as given in article PMC12892976, “Alkylation-based optimization of antifungal FPPS inhibitors yields a potent, broad-spectrum lipophilic zoledronate derivative” (mBio, 2025).
Converted amounts (≈) assume the structure as drawn.

Assays:
[1] = system: Candida albicans; assay: MIC/MFC broth microdilution (CLSI); type: cell-based; conditions: Candida albicans SC5314
Description: (§1) Antifungal susceptibility was determined by broth microdilution according to the CLSI guidelines described in M27-Ed4 ([16]). […] MFC was determined by back-plating drug-treated cultures from MIC broths onto SDA plates. The MFC was defined as the lowest concentration from which no colonies could be cultured.

[2] = system: Aspergillus fumigatus; assay: checkerboard drug interaction (FICI, MICc); type: cell-based;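 note: simplified diagonal checkerboard screen pairing antifungals with FPPS inhibitors against Aspergillus fumigatus, with FICI calculated under the Loewe additivity model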
Description: (§2) Drug interactions between antifungals and FPPS inhibitors were investigated using a simplified checkerboard diagonal screening method ([45]). […] FICIs were determined according to the Loewe additivity model ([17]).

[3] = system: Aspergillus flavus; assay: checkerboard drug interaction (FICI, MICc); type: cell-based;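 note: simplified diagonal checkerboard screen pairing azole antifungals with FPPS inhibitors, FICI calculated under the Loewe additivity model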
Description: as §2

[4] = system: Candida glabrata; assay: MIC/MFC broth microdilution (CLSI); conditions: for MIC / MEC: Candida glabrata CBS138 (ATCC 2001);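 for all read-outs here: broth microdilution following CLSI M27-Ed4, MFC taken as the lowest drug level yielding no growth once MIC wells were subcultured on SDA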
Description: as §1

[5] = system: Saccharomyces cerevisiae; assay: MIC/MFC broth microdilution (CLSI); type: cell-based; conditions: Saccharomyces cerevisiae S288c
Description: as §1

[6] = system: Candida albicans; assay: checkerboard drug interaction (FICI, MICc); type: cell-based;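 note: antifungal plus FPPS inhibitor combinations on Candida albicans tested by a simplified diagonal checkerboard screen, with FICI calculated under the Loewe additivity model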
Description: as §2

[7] = system: Candida glabrata; assay: checkerboard drug interaction (FICI, MICc); type: cell-based;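 note: simplified diagonal checkerboard screen pairing antifungals with FPPS inhibitors, FICI calculated under the Loewe additivity model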
Description: as §2

[8] = system: Saccharomyces cerevisiae; assay: checkerboard drug interaction (FICI, MICc); type: cell-based;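 note: simplified diagonal checkerboard screen pairing antifungals with FPPS inhibitors, FICI calculated under the Loewe additivity model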
Description: as §2

[9] = system: Candida auris; assay: checkerboard drug interaction (FICI, MICc); type: cell-based;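 note: simplified diagonal checkerboard screen pairing antifungals with FPPS inhibitors, with FICI computed under the Loewe additivity model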
Description: as §2

[10] = system: Trichophyton rubrum; assay: checkerboard drug interaction (FICI, MICc); type: cell-based;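 note: simplified diagonal checkerboard screen pairing azole antifungals with FPPS inhibitors, FICI calculated under the Loewe additivity model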
Description: as §2

[11] = system: Aspergillus flavus; assay: MIC/MFC broth microdilution (CLSI); conditions: ATCC204304
Description: as §1

[12] = system: Aspergillus fumigatus; assay: MIC/MFC broth microdilution (CLSI); conditions: ATCC204305
Description: as §1

[13] = system: Cryptococcus deuterogattii; assay: checkerboard drug interaction (FICI, MICc); type: cell-based;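 note: simplified diagonal checkerboard screen pairing antifungal drugs with FPPS inhibitors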
Description: as §2

[14] = system: Paraphyton cookei; assay: checkerboard drug interaction (FICI, MICc);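 note: simplified diagonal checkerboard screen pairing an antifungal with an FPPS inhibitor, FICI computed under the Loewe additivity model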
Description: as §2

[15] = system: Cryptococcus neoformans; assay: checkerboard drug interaction (FICI, MICc); type: cell-based;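 note: antifungal plus FPPS inhibitor pairs tested against Cryptococcus neoformans by simplified diagonal checkerboard screening, FICI computed under the Loewe additivity model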
Description: as §2

[16] = system: Cryptococcus deuterogattii; assay: MIC/MFC broth microdilution (CLSI); conditions: for MIC / MEC: Cryptococcus deuterogattii R265;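 for all read-outs here: broth microdilution per CLSI M27-Ed4. MFC is the lowest concentration yielding no colonies when MIC broths are subcultured onto SDA plates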
Description: as §1

[17] = system: Cryptococcus neoformans; assay: MIC/MFC broth microdilution (CLSI); conditions: for MIC / MEC: Cryptococcus neoformans H99;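 for all read-outs here: susceptibility testing followed the CLSI M27-Ed4 broth microdilution document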
Description: as §1

[18] = system: Trichophyton rubrum; assay: MIC/MFC broth microdilution (CLSI); conditions: for MIC / MEC: Trichophyton rubrum R-218
Description: as §1

[19] = system: eight fungal species; assay: MIC/MFC summary across the eight fungal species of Table 1; type: cell-based
Description: The antifungal activity of these compounds was evaluated according to CLSI guidelines ([16]).

CC[C@H](C)C[C@H](C)CCCCCCCCC(=O)N[C@H]1C[C@@H](O)[C@@H](NCCN)NC(=O)[C@@H]2[C@@H](O)CCN2C(=O)[C@H]([C@H](O)CCN)NC(=O)[C@H]([C@H](O)[C@@H](O)c2ccc(O)cc2)NC(=O)[C@@H]2C[C@@H](O)CN2C(=O)[C@H]([C@@H](C)O)NC1=O [CAS, caspofungin]
MIC / MEC [1]: 0.13 µg/mL (≈ 0.119 µM) | antifungal MICc ([2]; in combination with 10-ZOL): 8 | antifungal MICc ([2]; in combination with ZOL): 8 | antifungal MICc ([3]; in combination with 10-ZOL): 2 | antifungal MICc ([3]; in combination with ZOL): 4 | MIC / MEC [4]: 0.13 µg/mL (≈ 0.119 µM) | MIC / MEC [5]: 0.5 µg/mL (≈ 0.457 µM) | antifungal MICc ([6]; in combination with 10-ZOL): 0.063 | antifungal MICc ([6]; in combination with ZOL): 0.25 | antifungal MICc ([7]; in combination with 10-ZOL): 0.125 | antifungal MICc ([7]; in combination with ZOL): 0.25 | antifungal MICc ([8]; in combination with 10-ZOL): 0.125 | antifungal MICc ([8]; in combination with ZOL): 0.5 | antifungal MICc ([9]; in combination with 10-ZOL): 0.5 | antifungal MICc ([9]; in combination with ZOL): 4 | antifungal MICc ([10]; in combination with 10-ZOL): 0.25 | antifungal MICc ([10]; in combination with ZOL): 0.063 | MIC / MEC [11]: 8 µg/mL (≈ 7.32 µM) | MIC / MEC [12]: 16 µg/mL (≈ 14.6 µM) | antifungal MICc ([13]; in combination with 10-ZOL): 4 | antifungal MICc ([13]; in combination with ZOL): 16 | antifungal MICc ([14]; in combination with 10-ZOL): 0.25 | antifungal MICc ([14]; in combination with ZOL): 0.125 | antifungal MICc ([15]; in combination with 10-ZOL): 2 | antifungal MICc ([15]; in combination with ZOL): 16 | MIC / MEC [16]: 16 µg/mL (≈ 14.6 µM) | MIC / MEC [17]: 8 µg/mL (≈ 7.32 µM) | MIC / MEC [18]: 0.25 µg/mL (≈ 0.229 µM)

C[C@@H](c1ncncc1F)[C@](O)(Cn1cncn1)c1ccc(F)cc1F [VOR]
MIC / MEC [1]: 0.13 µg/mL (≈ 0.372 µM) | antifungal MICc ([2]; in combination with 10-ZOL): 0.25 | antifungal MICc ([2]; in combination with ZOL): 2 | antifungal MICc ([3]; in combination with 10-ZOL): 0.06 | antifungal MICc ([3]; in combination with ZOL): 0.25 | MIC / MEC [4]: 0.25 µg/mL (≈ 0.716 µM) | MIC / MEC [5]: 0.5 µg/mL (≈ 1.43 µM) | antifungal MICc ([6]; in combination with 10-ZOL): 0.063 | antifungal MICc ([6]; in combination with ZOL): 0.125 | antifungal MICc ([7]; in combination with 10-ZOL): 0.25 | antifungal MICc ([7]; in combination with ZOL): 0.0625 | antifungal MICc ([8]; in combination with 10-ZOL): 0.25 | antifungal MICc ([8]; in combination with ZOL): 0.25 | antifungal MICc ([9]; in combination with 10-ZOL): 0.25 | antifungal MICc ([9]; in combination with ZOL): 1 | antifungal MICc ([10]; in combination with 10-ZOL): 0.25 | antifungal MICc ([10]; in combination with ZOL): 0.25 | MIC / MEC [11]: 0.5 µg/mL (≈ 1.43 µM) | MIC / MEC [12]: 0.5 µg/mL (≈ 1.43 µM) | antifungal MICc ([13]; in combination with 10-ZOL): 0.125 | antifungal MICc ([13]; in combination with ZOL): 0.063 | antifungal MICc ([14]; in combination with ZOL): 0.125 | antifungal MICc ([15]; in combination with 10-ZOL): 0.063 | antifungal MICc ([15]; in combination with ZOL): 0.0625 | MIC / MEC [16]: 0.25 µg/mL (≈ 0.716 µM) | MIC / MEC [17]: 0.13 µg/mL (≈ 0.372 µM) | MIC / MEC [18]: 1 µg/mL (≈ 2.86 µM)

CCC(C)n1ncn(-c2ccc(N3CCN(c4ccc(OCC5COC(Cn6cncn6)(c6ccc(Cl)cc6Cl)O5)cc4)CC3)cc2)c1=O (stereo not drawn) [ITR, itraconazole]
MFC [1]: 2 µg/mL (≈ 2.83 µM) | MIC [1]: 0.25 µg/mL (≈ 0.354 µM) | MIC / MEC [1]: 0.25 µg/mL (≈ 0.354 µM) | antifungal MICc ([2]; in combination with 10-ZOL): 0.063 | antifungal MICc ([2]; in combination with ZOL): 0.063 | antifungal MICc ([3]; in combination with 10-ZOL): 0.5 | antifungal MICc ([3]; in combination with ZOL): 0.5 | MIC / MEC [4]: 0.13 µg/mL (≈ 0.184 µM) | MFC ([4]; Nakaseomyces glabratus, CBS138): 4 µg/mL (≈ 5.67 µM) | MIC ([4]; Nakaseomyces glabratus, CBS138): 0.125 µg/mL (≈ 0.177 µM) | MFC [5]: 1 µg/mL (≈ 1.42 µM) | MIC [5]: 0.25 µg/mL (≈ 0.354 µM) | MIC / MEC [5]: 0.25 µg/mL (≈ 0.354 µM) | antifungal MICc ([6]; in combination with 10-ZOL): 0.25 | antifungal MICc ([6]; in combination with ZOL): 0.25 | antifungal MICc ([7]; in combination with 10-ZOL): 0.031 | antifungal MICc ([7]; in combination with ZOL): 0.016 | MFC ([19]; across eight species, read-out: Geometric mean MFC): 3.7 µg/mL (≈ 5.24 µM) | MIC ([19]; read-out: Geometric mean MIC): 0.5 µg/mL (≈ 0.709 µM) | antifungal MICc ([8]; in combination with 10-ZOL): 0.125 | antifungal MICc ([8]; in combination with ZOL): 0.063 | antifungal MICc ([9]; in combination with 10-ZOL): 1 | antifungal MICc ([9]; in combination with ZOL): 1 | antifungal MICc ([10]; in combination with 10-ZOL): 1 | antifungal MICc ([10]; in combination with ZOL): 2 | MFC [11]: 2 µg/mL (≈ 2.83 µM) | MIC [11]: 0.5 µg/mL (≈ 0.709 µM) | MIC / MEC [11]: 0.5 µg/mL (≈ 0.709 µM) | MFC [12]: 4 µg/mL (≈ 5.67 µM) | MIC [12]: 0.125 µg/mL (≈ 0.177 µM) | MIC / MEC [12]: 0.13 µg/mL (≈ 0.184 µM) | antifungal MICc ([13]; in combination with 10-ZOL): 0.125 | antifungal MICc ([13]; in combination with ZOL): 0.25 | antifungal MICc ([14]; in combination with 10-ZOL): 0.063 | antifungal MICc ([14]; in combination with ZOL): 1 | antifungal MICc ([15]; in combination with 10-ZOL): 0.063 | antifungal MICc ([15]; in combination with ZOL): 0.125 | MFC ([16]; Cryptococcus deuterogattii): 4 µg/mL (≈ 5.67 µM) | MIC ([16]; Cryptococcus deuterogattii): 1 µg/mL (≈ 1.42 µM) | MIC / MEC [16]: 1 µg/mL (≈ 1.42 µM) | MFC ([17]; Cryptococcus neoformans): 4 µg/mL (≈ 5.67 µM) | MIC ([17]; Cryptococcus neoformans): 0.5 µg/mL (≈ 0.709 µM) | MIC / MEC [17]: 0.5 µg/mL (≈ 0.709 µM) | MFC ([18]; Trichophyton rubrum): > 16 µg/mL | MIC ([18]; Trichophyton rubrum): 8 µg/mL (≈ 11.3 µM) | MIC / MEC [18]: 8 µg/mL (≈ 11.3 µM)

Nc1nc(=O)[nH]cc1F [5FC, 5-flucytosine]
MIC / MEC [1]: 0.25 µg/mL (≈ 1.94 µM) | antifungal MICc ([2]; in combination with 10-ZOL): 256 | antifungal MICc ([2]; in combination with ZOL): 128 | antifungal MICc ([3]; in combination with 10-ZOL): 256 | antifungal MICc ([3]; in combination with ZOL): 128 | MIC / MEC [4]: 0.25 µg/mL (≈ 1.94 µM) | MIC / MEC [5]: 1 µg/mL (≈ 7.75 µM) | antifungal MICc ([6]; in combination with 10-ZOL): 0.125 | antifungal MICc ([6]; in combination with ZOL): 0.25 | antifungal MICc ([7]; in combination with 10-ZOL): 0.125 | antifungal MICc ([7]; in combination with ZOL): 0.125 | antifungal MICc ([8]; in combination with 10-ZOL): 1 | antifungal MICc ([8]; in combination with ZOL): 1 | antifungal MICc ([9]; in combination with 10-ZOL): 2 | antifungal MICc ([9]; in combination with ZOL): 1 | antifungal MICc ([10]; in combination with 10-ZOL): 32 | antifungal MICc ([10]; in combination with ZOL): 128 | MIC / MEC [11]: >64 µg/mL | MIC / MEC [12]: >64 µg/mL | antifungal MICc ([13]; in combination with 10-ZOL): 0.5 | antifungal MICc ([13]; in combination with ZOL): 0.125 | antifungal MICc ([14]; in combination with 10-ZOL): 512 | antifungal MICc ([14]; in combination with ZOL): 512 | antifungal MICc ([15]; in combination with 10-ZOL): 0.25 | antifungal MICc ([15]; in combination with ZOL): 1 | MIC / MEC [16]: 8 µg/mL (≈ 62 µM) | MIC / MEC [17]: 4 µg/mL (≈ 31 µM) | MIC / MEC [18]: >64 µg/mL
